What was measured:
[1] = tested on: Staphylococcus aureus ATCC 6538; test: Zone of Inhibition Assay for Staphylococcus aureus ATCC 6538; assay type: cell-based
Description: (§1) The anti-microbial efficacy of VFW composition is evaluated by finding its zone of inhibition against Staphylococcus Aureus, Escherichia coli, Candida Albicans and Aspergillus Niger and compared with zone of inhibition of standard antibiotics known to be very potent in eliminating the subject microorganism.
as §1, with “albicans” for “Albicans”, “niger” for “Niger”
Staphylococcus aureus is a gram-positive, round-shaped bacterium found as dominant genera on the surfaces of vegetables and fruits. The assay was performed for the culture of Staphylococcus aureus ATCC 6538. Ciplox is known to be very effective in eliminating this strain. It was used as standard antibiotic.

[2] = tested on: crown rot disease in Banana; test: Crown rotting evaluation of bananas washed in industrial set-up (banana plantation); settings: bananas soaked 30 minutes maximum in 2% VFW solution in water or NaClO solution in water
Description: As crown rot progresses, fruits like banana begins to soften and blacken and induces early ripening of fruits.
The crown-rot and fruit blackening studies are conducted to determine the efficacy of the Vegetable and Fruit Wash to protect the fruits from the so-called disease and also from premature ripening. This study is also conducted to determine the efficacy of the present invention in prolonging the life of the fruits, i.e. in increasing the shelf life of the fruits.
A batch of bananas is washed using 2% of Vegetable and Fruit Wash solution in water. The bananas are soaked in the solution for 30 minutes maximum, rinsed, dried and packed and are observed after 2 weeks of washing and after 4 weeks of washing post-delivery and ripening. Another batch of bananas are washed using Sodium Hypochlorite (NaClO) solution in water as per the industry standard washing procedure. The bananas are soaked in the solution for 30 minutes maximum, rinsed, dried and packed. They are observed after 2 weeks of washing and after 4 weeks of washing post delivery and ripening.

Escherichia coli 8739 = test: Zone of Inhibition Assay for Escherichia coli 8739; assay type: cell-based
Description: as §1
as §1, with “albicans” for “Albicans”, “niger” for “Niger”
20-30% of food-poisoning outbreaks linked to disease causing strains of the bacterium Escherichia coli are caused by people eating contaminated vegetables. The assay was performed for the culture of Escherichia coli 8739. Gentamicin is known to be very effective in eliminating this strain and is used as standard antibiotic.

Candida albicans 10231 = test: Zone of Inhibition Assay for Candida albicans 10231; assay type: cell-based
Description: Candida albicans is opportunistic pathogenic yeast found to have growth on fruits rich in sugar content like bananas, dates, grapes, mango, and dried fruit. The zone of inhibition assay is performed for the culture of Candida albicans 10231.

`O=C(O)c1cn(C2CC2)c2cc(N3CCNCC3)c(F)cc2c1=O` [Ciplox] was tested, and the “Zone of Inhibition (mm)” value [1] was 27.64 mm.

In the case of `OCl` [NaClO, Sodium Hypochlorite], the “Number of Rotten Crowns 2 weeks after Washing” value [2] is reported as 1, the “Number of Rotten Crowns 4 weeks after Washing” value [2] is reported as 3 and the “Number of Rotten Crowns after Ripening” value [2] is reported as 5.

Gentamicin was tested, and the “Zone of Inhibition (mm)” value (Escherichia coli 8739) was 24.54 mm.

For Zinc pyrithione [ZPTO], the “Zone of Inhibition (mm)” value (Candida albicans 10231) was 24.37 mm.

From patent US11744269B2, “Vegetable and fruit wash formulation and uses thereof” (priority 2020, dated 2023)
